Experimental data from patent US20070060558A1 (PALUMED S.A., priority 2004, published 2007).
Converted amounts (≈) assume the structure as drawn.

Legend:
[1] = tested on: B. thuringiensis CIP 104676; assay: Antibacterial activity (MIC); format: cell-based; details: Bacillus thuringiensis, CIP104676; B. thuringiensis CIP 104676; read-out: MIC
P. aeruginosa CIP 103467 = assay: Antibacterial activity (MIC); format: cell-based; details: Pseudomonas aeruginosa, CIP103467; P. aeruginosa CIP 103467; read-out: MIC
B. subtilis CIP 5262 = assay: Antibacterial activity (MIC); format: cell-based; details: Bacillus subtilis, CIP5262; B. subtilis CIP 5262; read-out: MIC
S. aureus NorA 1199B = assay: Antibacterial activity (MIC); format: cell-based, Staphylococcus aureus
E. coli CIP 54127 = assay: Antibacterial activity (MIC); format: cell-based; details: Escherichia coli, CIP54127; E. coli CIP 54127; read-out: MIC
[2] = tested on: Staphylococcus aureus MSSA CIP 4.83; assay: Antibacterial activity (MIC/MBC); format: cell-based; details: Staphylococcus aureus; S. aureus MSSA CIP 4.83; read-out: MIC
S. pneumoniae PRSP = assay: Antibacterial activity (MIC), Table VII; format: cell-based; details: Streptococcus pneumoniae; S. pneumoniae PRSP (Table VII); read-out: MIC
H. influenzae CIP 102514 = assay: Antibacterial activity (MIC/MBC); format: cell-based, Haemophilus influenzae; details: Haemophilus influenzae, CIP102514; H. influenzae CIP 102514; read-out: MIC
[3] = tested on: E. faecalis VRE CIP 104676; assay: Antibacterial activity (MIC/MBC); format: cell-based, Enterococcus faecalis; details: Enterococcus faecalis; E. faecalis VRE CIP 104676; read-out: MIC
S. pyogenes CIP 56.41T = assay: Antibacterial activity (MIC/MBC); format: cell-based, Streptococcus pyogenes; details: Streptococcus pyogenes, CIP56; S. pyogenes CIP 56.41T; read-out: MIC
[4] = tested on: S. pneumoniae PRSP clinical isolate; assay: Antibacterial activity (MIC/MBC); format: cell-based, Streptococcus pneumoniae; details: Streptococcus pneumoniae, PRSP, read-out: MIC
[5] = tested on: S. aureus MRSA clinical isolate; assay: Antibacterial activity (MIC); format: cell-based, Staphylococcus aureus; details: Staphylococcus aureus; S. aureus MRSA clinical isolate; read-out: MIC
S. pneumoniae mefE = assay: Antibacterial activity (MIC); format: cell-based; details: Streptococcus pneumoniae; S. pneumoniae mefE (macrolide-resistant by efflux)
[6] = tested on: S. pneumoniae PSSP CQI 201; assay: Antibacterial activity (MIC); format: cell-based, Streptococcus pneumoniae; details: Streptococcus pneumoniae; S. pneumoniae PSSP CQI 201; read-out: MIC
B. fragilis API 7716 = assay: Antibacterial activity (MIC); format: cell-based; details: Bacteroides fragilis, API7716
[7] = Staphylococcus aureus, NORA1199B

| Structure (SMILES) | MIC [1] | MIC (P. aeruginosa CIP 103467) | MIC (B. subtilis CIP 5262) | MIC (S. aureus NorA 1199B; [7]) | MIC (E. coli CIP 54127) | MIC [2] | MIC (S. pneumoniae PRSP) | MIC (H. influenzae CIP 102514) | MIC [3] | MIC (B. fragilis API 7716) | other results |
| --- | --- | --- | --- | --- | --- | --- | --- | --- | --- | --- | --- |
| O=C(O)c1cn(C2CC2)c2cc(N3CCNCC3)c(F)cc2c1=O [Ciprofloxacin, reference compound] | 0.156 µg/mL (≈ 0.471 µM) | 0.156 µg/mL (≈ 0.471 µM) | 0.04 µg/mL (≈ 0.121 µM) | > 50 µg/mL | 0.01 µg/mL (≈ 0.0302 µM) | 0.312 µg/mL (≈ 0.942 µM) | 1.25 µg/mL (≈ 3.77 µM) | 0.1 µg/mL (≈ 0.302 µM) | 1.25 µg/mL (≈ 3.77 µM) | – | MIC (S. aureus NorA 1199B; S. aureus NorA 1199B (quinolone-resistant by efflux)): >50 µg/mL |
| CC[C@H]1OC(=O)[C@H](C)[C@@H](O[C@H]2C[C@@](C)(OC)[C@@H](O)[C@H](C)O2)[C@H](C)[C@@H](O[C@@H]2O[C@H](C)C[C@H](N(C)C)[C@H]2O)[C@](C)(O)C[C@@H](C)C(=O)[C@H](C)[C@@H](O)[C@]1(C)O [Erythromycin, reference compound] | – | – | – | – | – | 0.156 µg/mL (≈ 0.213 µM) | – | – | – | – | MIC (S. pyogenes CIP 56.41T): 0.039 µg/mL (≈ 0.0531 µM); MIC [4]: > 5 µg/mL; MIC [5]: 0.156 µg/mL (≈ 0.213 µM); MIC (S. pneumoniae mefE): 5 µg/mL (≈ 6.81 µM); MIC [6]: 0.039 µg/mL (≈ 0.0531 µM) |
| Cc1ncc([N+](=O)[O-])n1CCO [Metronidazole, reference compound] | – | – | – | – | – | – | – | – | – | 0.2 µg/mL (≈ 1.17 µM) | – |
| Cl.O=C(O)c1cn(C2CC2)c2cc(N3CCN(CCNc4ccnc5cc(Cl)ccc45)CC3)c(F)cc2c1=O [PA 1127, 7-{4-[2-(7-Chloroquinolin-4-ylamino)-ethyl]-piperazin-1-yl}-1-cyclopropyl-6-fluoro-4-oxo-1,4-dihydroquinoline-3-carboxylic acid hydrochloride] | 0.625 µg/mL | 5 µg/mL | 0.312 µg/mL | 3 µg/mL | 0.156 µg/mL | 1.25 µg/mL | 2.5 µg/mL | 0.156 µg/mL | 1.25 µg/mL | – | – |
| Cc1ncc([N+](=O)[O-])n1CCNc1ccnc2cc(Cl)ccc12 [PA 1129, (7-Chloroquinolin-4-yl)-[2-(2-methyl-5-nitroimidazol-1-yl)-ethyl]-amine] | – | – | – | – | – | – | – | – | – | 0.78 µg/mL (≈ 2.35 µM) | – |
